IC50 data for ten molecules are collected here from ChEMBL document CHEMBL1153026, “Cytotoxic 3,4-seco-cycloartane triterpenes from Gardenia sootepensis” (J Nat Prod, 2009).

Experiment [1] deals with BT-474. In words: Cytotoxicity against human BT474 cells after 3 days by MTT assay. The class given is functional, cell-based. Conditions: BT-474, 72 h. (Formazan colour is commonly taken as a measure of viable cells.)
Experiment [2] has as its system SW-620. In words: Cytotoxicity against human SW620 cells after 3 days by MTT assay. The note with it: SW-620, 72 h. The class given is functional, cell-based.
The nature of experiment [3]: Cytotoxicity against human ChaGo cells after 3 days by MTT assay. The class given is functional, cell-based. Conditions: 72 h.
Experiment [4] can be described thus: Cytotoxicity against human KATO III cells after 3 days by MTT assay. Conditions: 72 h. The class given is functional, cell-based, KATO III cell.
The test system of experiment [5] is HepG2. In words: Cytotoxicity against human HepG2 cells after 3 days by MTT assay. The format is functional, cell-based. Conditions: HepG2, 72 h.

≈ marks a conversion by molar mass, not a printed value. Where only a bound is given, the exact number is not on record here.

In the case of `C=C1C(=O)O[C@H]2C[C@@H]3[C@@]4(CC[C@]5(C)[C@H]([C@@H](C)CC/C=C(\C)C=O)CC[C@@]35C)C[C@]4(CCC(=O)OC)[C@@H]12` [CORONALOLIDE METHYL ESTER], the IC50 (in general, the concentration that inhibits the measured activity by half) in experiment [1] was > 10 µg/mL; in experiment [2], 6.19 µg/mL (≈ 12.5 µM); in experiment [3] it was > 10 µg/mL; in experiment [4], 8.64 µg/mL (≈ 17.4 µM); in experiment [5], 6.8 µg/mL (≈ 13.7 µM).

For `C=C1C(=O)O[C@@H]2C[C@@H]3[C@]4(CC[C@]5(C)[C@@H]([C@H](C)CC/C=C(\C)C=O)CC[C@@]35C)C[C@]4(CCC(=O)O)[C@H]12` [CORONALOLIDE], the IC50 in experiment [1] was 6.59 µg/mL (≈ 13.7 µM); in experiment [2], 4.98 µg/mL (≈ 10.3 µM); in experiment [3], 5.42 µg/mL (≈ 11.2 µM); in experiment [4], 5.85 µg/mL (≈ 12.1 µM); in experiment [5], 6.41 µg/mL (≈ 13.3 µM).

Take `COc1cccc2c1C(=O)c1c(O)c3c(c(O)c1C2=O)C[C@@](O)(C(=O)CO)C[C@@H]3O[C@H]1C[C@H](N)[C@H](O)[C@H](C)O1` [DOXORUBICIN]: the IC50 was 8.92 µg/mL (≈ 16.4 µM) in experiment [1]; > 10 µg/mL in experiment [2]; 3.98 µg/mL (≈ 7.32 µM) in experiment [3]; 5.45 µg/mL (≈ 10 µM) in experiment [4]; 3.36 µg/mL (≈ 6.18 µM) in experiment [5].

`C=C(CO)[C@@H]1CC[C@H]2[C@]3(CC[C@]4(C)[C@@H]([C@H](C)CCC=C(C)C)CC[C@@]24C)C[C@]13CCC(=O)O` [SECAUBRYENOL]: the IC50 in experiment [1], in experiment [2], in experiment [3], in experiment [4] and in experiment [5] was > 10 µg/mL throughout.

`C=C1C(=O)O[C@@H]2C[C@@H]3[C@]4(CC[C@]5(C)[C@@H]([C@H](C)CC/C=C(\C)CO)CC[C@@]35C)C[C@]4(CCC(=O)OC)[C@H]12` [SOOTEPIN A]: the IC50 in experiment [1] came out at 5.92 µg/mL (≈ 11.9 µM); in experiment [2], 1.8 µg/mL (≈ 3.61 µM); in experiment [3] it was 3.97 µg/mL (≈ 7.96 µM); in experiment [4], 2.1 µg/mL (≈ 4.21 µM); in experiment [5], 2.9 µg/mL (≈ 5.82 µM).

`C=C1C(=O)O[C@@H]2C[C@@H]3[C@]4(CC[C@]5(C)[C@@H]([C@H](C)CCC=C(C)C)CC[C@@]35C)C[C@]4(CCC(=O)O)[C@H]12` [SOOTEPIN B]: the IC50 amounted to 4.98 µg/mL (≈ 10.6 µM) in experiment [1]; 5.57 µg/mL (≈ 11.9 µM) in experiment [2]; 5.24 µg/mL (≈ 11.2 µM) in experiment [3]; 3.68 µg/mL (≈ 7.85 µM) in experiment [4]; 5.86 µg/mL (≈ 12.5 µM) in experiment [5].

With `C=C(CO)[C@@H]1CC[C@@H]2[C@]3(CC[C@]4(C)[C@@H]([C@H](C)CCC=C(C)C)CC[C@@]24C)C[C@]13CCC(=O)OC` [SOOTEPIN C], the IC50 is > 10 µg/mL in experiment [1]; > 10 µg/mL in experiment [2]; > 10 µg/mL in experiment [3]; 7.79 µg/mL (≈ 16.5 µM) in experiment [4]; 3.49 µg/mL (≈ 7.41 µM) in experiment [5].

Turning to `C=C(CO)[C@@H]1CC[C@@H]2[C@]3(CC[C@]4(C)[C@@H]([C@H](C)CC/C=C(\C)C=O)CC[C@@]24C)C[C@]13CCC(=O)OC` [SOOTEPIN D], the IC50 in experiment [1] is > 10 µg/mL; in experiment [2] it was > 10 µg/mL; in experiment [3], > 10 µg/mL; in experiment [4] it was 7.35 µg/mL (≈ 15.2 µM); in experiment [5] it was > 10 µg/mL.

As to `C=C(C)[C@@H]1CC[C@@H]2[C@]3(CC[C@]4(C)[C@@H]([C@H](C)CCC=C(C)C)CC[C@@]24C)C[C@]13CCC(=O)O` [SOOTEPIN E], the IC50 in experiment [1] came out at 6.07 µg/mL (≈ 13.8 µM); in experiment [2] it was 4.22 µg/mL (≈ 9.58 µM); in experiment [3], 5.2 µg/mL (≈ 11.8 µM); in experiment [4], 1.91 µg/mL (≈ 4.33 µM); in experiment [5] it was 3.14 µg/mL (≈ 7.12 µM).

Take `C=C1C(=O)O[C@@H]2C[C@@H]3[C@]4(CC[C@]5(C)[C@@H]([C@H](C)CCC=C(C)C)CC[C@@]35C)C[C@]4(CCC(=O)OC)[C@H]12` [TUBIFEROLIDE METHYL ESTER]: the IC50 in experiment [1] came out at 5.33 µg/mL (≈ 11 µM); in experiment [2], 5.78 µg/mL (≈ 12 µM); in experiment [3] it was 4.08 µg/mL (≈ 8.45 µM); in experiment [4], 4.9 µg/mL (≈ 10.2 µM); in experiment [5], 3.41 µg/mL (≈ 7.06 µM).
